Assay results published in PMC10175918 (Communications Biology, 2023).
Like-named read-outs stand apart in the source and are kept apart here.

Assays:
Test in all cases: TGFα-shedding assay-based GPCR screening with chimeric Gα subunit proteins
Format in all cases: cell-based
348 GPCRs [1] = target: T1, 348 GPCRs (Homo sapiens, UniProt Q9H3N8); conditions: 10µM, Favipiravir 100μM
T1 construct: expressed in transfected cells; host or cells: HEK293A

348 GPCRs [2] = target: 348 GPCRs (Homo sapiens, UniProt Q9H228); conditions: 10µM, Favipiravir 100μM
348 GPCRs (Homo sapiens, UniProt Q9H228), sequence (Q9H228 whole entry): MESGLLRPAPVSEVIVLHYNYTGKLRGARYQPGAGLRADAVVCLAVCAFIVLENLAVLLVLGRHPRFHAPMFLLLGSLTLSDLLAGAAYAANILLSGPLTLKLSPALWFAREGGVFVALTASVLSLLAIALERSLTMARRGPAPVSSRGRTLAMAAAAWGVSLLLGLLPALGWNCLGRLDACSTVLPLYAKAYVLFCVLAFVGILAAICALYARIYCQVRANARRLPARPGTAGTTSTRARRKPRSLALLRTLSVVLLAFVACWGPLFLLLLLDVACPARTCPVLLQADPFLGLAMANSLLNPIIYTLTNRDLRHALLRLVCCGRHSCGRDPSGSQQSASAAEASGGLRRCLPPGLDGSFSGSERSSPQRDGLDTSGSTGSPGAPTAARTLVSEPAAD

348 GPCRs [3] = target: T2, 348 GPCRs (Homo sapiens, UniProt Q8TDS5); conditions: 10µM, Favipiravir 100μM
T2 construct: expressed in transfected cells; host or cells: HEK293A
T2 sequence (Q8TDS5 whole entry): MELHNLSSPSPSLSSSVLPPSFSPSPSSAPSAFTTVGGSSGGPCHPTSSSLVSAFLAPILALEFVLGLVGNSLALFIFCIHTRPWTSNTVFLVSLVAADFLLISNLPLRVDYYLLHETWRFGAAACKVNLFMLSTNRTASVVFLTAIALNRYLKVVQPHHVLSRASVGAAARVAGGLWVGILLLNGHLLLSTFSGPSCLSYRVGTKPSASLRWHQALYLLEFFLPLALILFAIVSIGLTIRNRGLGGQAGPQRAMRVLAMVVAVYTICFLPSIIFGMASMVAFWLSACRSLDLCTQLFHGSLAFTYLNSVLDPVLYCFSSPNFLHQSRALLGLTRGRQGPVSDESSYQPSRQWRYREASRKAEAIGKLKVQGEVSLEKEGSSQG

348 GPCRs [4] = target: T3, 348 GPCRs (Homo sapiens, UniProt Q14330); conditions: GPR18 (G protein-coupled receptor 18); 10µM, Favipiravir 100μM
T3 construct: expressed in transfected cells; host or cells: HEK293A
T3 sequence (Q14330 1-331): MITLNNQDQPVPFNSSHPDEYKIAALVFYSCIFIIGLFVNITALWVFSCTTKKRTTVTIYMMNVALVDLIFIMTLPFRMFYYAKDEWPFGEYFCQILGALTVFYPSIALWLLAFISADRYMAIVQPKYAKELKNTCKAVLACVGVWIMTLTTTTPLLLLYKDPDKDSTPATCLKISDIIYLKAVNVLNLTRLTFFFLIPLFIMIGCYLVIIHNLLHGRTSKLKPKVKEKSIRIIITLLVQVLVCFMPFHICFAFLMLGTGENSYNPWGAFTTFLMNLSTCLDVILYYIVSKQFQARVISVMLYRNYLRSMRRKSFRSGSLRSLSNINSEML

348 GPCRs [5] = target: 348 GPCRs (Homo sapiens, UniProt P41146); conditions: 10µM, Favipiravir 100μM
348 GPCRs (Homo sapiens, UniProt P41146), sequence (P41146 whole entry): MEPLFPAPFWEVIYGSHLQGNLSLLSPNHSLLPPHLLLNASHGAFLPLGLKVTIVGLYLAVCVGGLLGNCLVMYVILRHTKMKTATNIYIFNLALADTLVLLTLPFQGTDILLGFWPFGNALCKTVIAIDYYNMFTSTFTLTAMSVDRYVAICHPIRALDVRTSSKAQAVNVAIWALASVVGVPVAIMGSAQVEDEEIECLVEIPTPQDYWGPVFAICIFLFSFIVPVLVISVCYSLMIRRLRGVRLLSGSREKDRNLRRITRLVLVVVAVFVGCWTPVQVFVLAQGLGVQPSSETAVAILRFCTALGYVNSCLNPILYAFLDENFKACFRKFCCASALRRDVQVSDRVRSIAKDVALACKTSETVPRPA

348 GPCRs [6] = target: T4, 348 GPCRs (Homo sapiens, UniProt Q86SM8); conditions: 10µM, Favipiravir 100μM
T4 construct: expressed in transfected cells; host or cells: HEK293A
T4 sequence (Q86SM8 whole entry): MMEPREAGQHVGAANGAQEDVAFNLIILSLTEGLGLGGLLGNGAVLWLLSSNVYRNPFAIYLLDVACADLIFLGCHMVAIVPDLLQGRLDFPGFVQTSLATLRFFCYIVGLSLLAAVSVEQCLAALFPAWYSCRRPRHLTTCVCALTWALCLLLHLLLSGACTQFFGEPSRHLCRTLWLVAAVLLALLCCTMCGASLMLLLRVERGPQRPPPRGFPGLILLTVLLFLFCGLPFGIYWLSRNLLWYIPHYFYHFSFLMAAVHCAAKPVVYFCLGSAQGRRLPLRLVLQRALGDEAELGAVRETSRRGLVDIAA

348 GPCRs [7] = target: T5, 348 GPCRs (Homo sapiens, UniProt P21462); conditions: 10µM, Favipiravir 100μM
T5 sequence (P21462 1-350): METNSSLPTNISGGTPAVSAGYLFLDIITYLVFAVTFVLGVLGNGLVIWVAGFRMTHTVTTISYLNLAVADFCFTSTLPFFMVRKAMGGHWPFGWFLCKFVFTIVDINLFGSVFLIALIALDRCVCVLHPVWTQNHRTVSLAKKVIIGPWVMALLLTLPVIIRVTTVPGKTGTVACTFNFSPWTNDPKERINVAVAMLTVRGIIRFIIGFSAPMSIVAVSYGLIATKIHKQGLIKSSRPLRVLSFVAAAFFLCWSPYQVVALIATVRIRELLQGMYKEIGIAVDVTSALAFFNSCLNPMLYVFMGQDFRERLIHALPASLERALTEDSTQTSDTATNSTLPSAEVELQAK

348 GPCRs [8] = target: T6, 348 GPCRs (Homo sapiens, UniProt Q9HBX9); conditions: RXFP1 (relaxin/insulin-like family peptide receptor 1); 10µM, Favipiravir 100μM
T6 construct: expressed in transfected cells; host or cells: HEK293A
T6 sequence (Q9HBX9 1-757): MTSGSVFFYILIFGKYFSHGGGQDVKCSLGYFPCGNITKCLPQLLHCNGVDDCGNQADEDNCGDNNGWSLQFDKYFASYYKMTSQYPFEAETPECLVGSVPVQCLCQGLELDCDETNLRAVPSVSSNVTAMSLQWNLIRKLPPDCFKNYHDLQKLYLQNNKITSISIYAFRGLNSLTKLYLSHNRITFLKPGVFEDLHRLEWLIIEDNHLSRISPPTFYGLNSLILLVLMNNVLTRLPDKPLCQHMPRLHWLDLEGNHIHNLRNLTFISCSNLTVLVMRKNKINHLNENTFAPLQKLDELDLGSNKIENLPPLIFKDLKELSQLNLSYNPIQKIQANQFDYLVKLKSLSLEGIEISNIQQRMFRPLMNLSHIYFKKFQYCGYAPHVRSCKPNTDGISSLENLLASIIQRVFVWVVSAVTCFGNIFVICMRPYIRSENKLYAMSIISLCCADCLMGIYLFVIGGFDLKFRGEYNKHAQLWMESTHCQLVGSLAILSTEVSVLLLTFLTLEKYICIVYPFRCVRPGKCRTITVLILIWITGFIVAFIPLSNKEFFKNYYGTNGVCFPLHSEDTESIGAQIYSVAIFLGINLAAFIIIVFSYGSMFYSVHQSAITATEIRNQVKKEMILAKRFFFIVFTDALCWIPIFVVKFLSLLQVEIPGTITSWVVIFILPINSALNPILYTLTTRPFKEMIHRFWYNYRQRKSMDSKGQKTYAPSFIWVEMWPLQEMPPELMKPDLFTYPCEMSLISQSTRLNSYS

348 GPCRs [9] = target: T7, 348 GPCRs (Homo sapiens, UniProt P59542); conditions: 10µM, Favipiravir 100μM
T7 construct: expressed in transfected cells; host or cells: HEK293A
T7 sequence (P59542 1-299): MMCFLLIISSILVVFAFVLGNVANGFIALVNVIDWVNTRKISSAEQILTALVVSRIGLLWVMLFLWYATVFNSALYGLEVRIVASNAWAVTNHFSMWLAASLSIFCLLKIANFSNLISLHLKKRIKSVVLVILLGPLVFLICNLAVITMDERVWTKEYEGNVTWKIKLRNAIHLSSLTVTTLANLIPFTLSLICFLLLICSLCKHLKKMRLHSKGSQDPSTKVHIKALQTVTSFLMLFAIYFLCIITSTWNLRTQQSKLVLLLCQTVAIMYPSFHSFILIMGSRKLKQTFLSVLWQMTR

348 GPCRs [10] = target: T8, 348 GPCRs (Homo sapiens, UniProt P30518)
T8 construct: expressed in transfected cells; host or cells: HEK293A
T8 sequence (P30518 whole entry): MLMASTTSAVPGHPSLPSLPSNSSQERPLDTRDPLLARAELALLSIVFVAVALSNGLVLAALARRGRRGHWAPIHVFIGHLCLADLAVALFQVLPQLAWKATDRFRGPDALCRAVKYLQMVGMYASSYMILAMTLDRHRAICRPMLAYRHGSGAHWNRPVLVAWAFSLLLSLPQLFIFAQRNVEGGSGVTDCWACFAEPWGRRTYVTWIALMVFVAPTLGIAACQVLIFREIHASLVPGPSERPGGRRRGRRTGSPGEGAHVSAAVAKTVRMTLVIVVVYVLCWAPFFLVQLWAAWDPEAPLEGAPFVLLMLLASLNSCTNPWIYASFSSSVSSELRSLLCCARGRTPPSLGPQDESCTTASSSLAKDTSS

348 GPCRs [11] = target: 348 GPCRs (Homo sapiens, UniProt P25103); conditions: 10µM, Favipiravir 100μM
348 GPCRs (Homo sapiens, UniProt P25103), sequence (P25103 whole entry): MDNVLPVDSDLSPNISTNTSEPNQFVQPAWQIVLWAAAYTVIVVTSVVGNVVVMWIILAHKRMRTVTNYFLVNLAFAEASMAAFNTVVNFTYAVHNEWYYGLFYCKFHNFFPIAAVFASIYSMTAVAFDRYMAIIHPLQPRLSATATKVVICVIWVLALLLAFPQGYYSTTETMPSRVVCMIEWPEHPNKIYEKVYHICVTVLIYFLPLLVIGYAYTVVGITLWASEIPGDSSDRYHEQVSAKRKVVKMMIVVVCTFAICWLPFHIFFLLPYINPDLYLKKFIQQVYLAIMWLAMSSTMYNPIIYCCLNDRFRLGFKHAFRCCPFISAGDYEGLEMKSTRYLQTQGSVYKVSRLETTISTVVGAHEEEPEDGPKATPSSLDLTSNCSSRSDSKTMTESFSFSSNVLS

348 GPCRs [12] = target: T9, 348 GPCRs (Homo sapiens, UniProt Q9NQ84); conditions: 10µM, Favipiravir 100μM
T9 construct: expressed in transfected cells; host or cells: HEK293A
T9 sequence (Q9NQ84 24-441): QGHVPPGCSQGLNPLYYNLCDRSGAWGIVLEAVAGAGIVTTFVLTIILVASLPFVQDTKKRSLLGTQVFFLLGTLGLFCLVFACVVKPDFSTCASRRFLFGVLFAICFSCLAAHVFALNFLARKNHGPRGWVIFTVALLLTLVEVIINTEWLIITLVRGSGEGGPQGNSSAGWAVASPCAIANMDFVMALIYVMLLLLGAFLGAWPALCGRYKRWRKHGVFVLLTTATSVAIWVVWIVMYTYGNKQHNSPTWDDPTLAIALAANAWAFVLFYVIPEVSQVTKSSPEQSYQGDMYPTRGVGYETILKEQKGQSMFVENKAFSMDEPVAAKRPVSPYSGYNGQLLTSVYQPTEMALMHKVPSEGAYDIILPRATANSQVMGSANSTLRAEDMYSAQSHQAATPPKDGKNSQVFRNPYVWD

[13] = H4 (histamine receptor H4), read-out: % GPCR activation compared to TPA
[14] = S1PR5 (sphingosine-1-phosphate receptor 5), read-out: % GPCR activation compared to TPA
[15] = OXER1 (oxoeicosanoid receptor 1), read-out: % GPCR activation compared to TPA
[16] = OPRL1 (opioid Related Nociceptin Receptor 1), read-out: % GPCR activation compared to TPA
[17] = MRGE (MAS-related GPR, member E), read-out: % GPCR activation compared to TPA
[18] = MRGPRE (MAS-related GPR, member E), read-out: % GPCR activation compared to TPA
[19] = FPR1 (formyl peptide receptor 1), read-out: % GPCR activation compared to TPA
[20] = TAS2R19 (taste receptor, type 2, member 19), read-out: % GPCR activation compared to TPA
[21] = GPCR V2 (arginine vasopressin receptor 2), read-out: % GPCR activation compared to TPA
[22] = NK1 (tachykinin receptor 1), read-out: % GPCR activation compared to TPA
[23] = GPRC5C (G protein-coupled receptor, family C, group 5, member C), read-out: % GPCR activation compared to TPA
[24] = read-out: % GPCR activation compared to TPA, H4 (histamine receptor H4)
[25] = read-out: % GPCR activation compared to TPA, S1PR5 (sphingosine-1-phosphate receptor 5)
[26] = read-out: % GPCR activation compared to TPA, OXER1 (oxoeicosanoid receptor 1)
[27] = read-out: % GPCR activation compared to TPA, OPRL1 (opioid Related Nociceptin Receptor 1)
[28] = read-out: % GPCR activation compared to TPA, MRGE (MAS-related GPR, member E)
[29] = read-out: % GPCR activation compared to TPA, MRGPRE (MAS-related GPR, member E)
[30] = read-out: % GPCR activation compared to TPA, FPR1 (formyl peptide receptor 1)
[31] = read-out: % GPCR activation compared to TPA, TAS2R19 (taste receptor, type 2, member 19)
[32] = read-out: % GPCR activation compared to TPA, GPCR V2 (arginine vasopressin receptor 2)
[33] = read-out: % GPCR activation compared to TPA, NK1 (tachykinin receptor 1)
[34] = read-out: % GPCR activation compared to TPA, GPRC5C (G protein-coupled receptor, family C, group 5, member C)

T1 sequence (Q9H3N8 whole entry): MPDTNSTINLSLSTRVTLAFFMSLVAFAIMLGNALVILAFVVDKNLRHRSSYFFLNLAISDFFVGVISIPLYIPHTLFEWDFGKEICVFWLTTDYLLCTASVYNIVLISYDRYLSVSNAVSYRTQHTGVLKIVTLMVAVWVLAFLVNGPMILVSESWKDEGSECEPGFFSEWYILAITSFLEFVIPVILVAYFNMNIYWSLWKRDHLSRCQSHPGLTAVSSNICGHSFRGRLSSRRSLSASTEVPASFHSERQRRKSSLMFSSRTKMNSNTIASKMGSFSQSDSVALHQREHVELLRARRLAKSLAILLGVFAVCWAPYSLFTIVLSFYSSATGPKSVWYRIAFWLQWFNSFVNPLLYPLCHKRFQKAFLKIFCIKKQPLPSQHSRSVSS

N#C[C@@]1(c2ccc3c(N)ncnn23)O[C@H](CO)[C@@H](O)[C@H]1O [GS441524]
activation at 100 µM (348 GPCRs [1]; [13]): 5.54% | activation at 10 µM (348 GPCRs [2]; [14]): -0.465% | activation at 10 µM (348 GPCRs [3]; [15]): -0.233% | % GPCR activation compared to TPA (348 GPCRs [4]): 2.081% | activation at 10 µM (348 GPCRs [5]; [16]): -0.87% | activation at 100 µM (348 GPCRs [6]; [17]): -0.92% | activation at 100 µM (348 GPCRs [6]; [18]): -0.879% | activation at 100 µM (348 GPCRs [7]; [19]): -4.1% | % GPCR activation compared to TPA (348 GPCRs [8]): -1.093% | activation at 100 µM (348 GPCRs [9]; [20]): -0.28% | activation at 10 µM (348 GPCRs [10]; [21]): -0.765% | activation at 10 µM (348 GPCRs [11]; [22]): -0.668% | activation at 100 µM (348 GPCRs [12]; [23]): -1%

CC(C)OC(=O)[C@H](C)N[P@](=O)(OC[C@H]1O[C@@H](n2ccc(=O)[nH]c2=O)[C@](C)(F)[C@@H]1O)Oc1ccccc1 [sofosbuvir]
activation at 100 µM (348 GPCRs [1]; [24]): -3.28% | activation at 10 µM (348 GPCRs [2]; [25]): -0.326% | activation at 10 µM (348 GPCRs [3]; [26]): -1.86% | % GPCR activation compared to TPA (348 GPCRs [4]): -3.042% | activation at 10 µM (348 GPCRs [5]; [27]): 0.297% | activation at 100 µM (348 GPCRs [6]; [28]): -1.05% | activation at 100 µM (348 GPCRs [6]; [29]): 0.355% | activation at 100 µM (348 GPCRs [7]; [30]): -0.986% | % GPCR activation compared to TPA (348 GPCRs [8]): 0.4557% | activation at 100 µM (348 GPCRs [9]; [31]): -0.561% | activation at 10 µM (348 GPCRs [10]; [32]): -0.417% | activation at 10 µM (348 GPCRs [11]; [33]): -1.29% | activation at 100 µM (348 GPCRs [12]; [34]): -0.501%

CCC(CC)COC(=O)[C@H](C)N[P@](=O)(OC[C@H]1O[C@@](C#N)(c2ccc3c(N)ncnn23)[C@H](O)[C@@H]1O)Oc1ccccc1 [remdesivir]
activation at 100 µM (348 GPCRs [1]; [24]): 7.16% | activation at 10 µM (348 GPCRs [2]; [25]): -1.2% | activation at 10 µM (348 GPCRs [3]; [26]): 2.06% | % GPCR activation compared to TPA (348 GPCRs [4]): 1.118% | activation at 10 µM (348 GPCRs [5]; [27]): -1.46% | activation at 100 µM (348 GPCRs [6]; [28]): -2.75% | activation at 100 µM (348 GPCRs [6]; [29]): -1.08% | activation at 100 µM (348 GPCRs [7]; [30]): -4.31% | % GPCR activation compared to TPA (348 GPCRs [8]): -0.5639% | activation at 100 µM (348 GPCRs [9]; [31]): 0.523% | activation at 10 µM (348 GPCRs [10]; [32]): 1.36% | activation at 10 µM (348 GPCRs [11]; [33]): -0.867% | activation at 100 µM (348 GPCRs [12]; [34]): -1.81%

CC(C)C(=O)OC[C@H]1O[C@@H](n2ccc(NO)nc2=O)[C@H](O)[C@@H]1O [molnupiravir]
activation at 100 µM (348 GPCRs [1]; [13]): -3.71% | activation at 10 µM (348 GPCRs [2]; [14]): -0.945% | activation at 10 µM (348 GPCRs [3]; [15]): -0.119% | % GPCR activation compared to TPA (348 GPCRs [4]): -5.385% | activation at 10 µM (348 GPCRs [5]; [16]): -2.5% | activation at 100 µM (348 GPCRs [6]; [17]): -1.17% | activation at 100 µM (348 GPCRs [6]; [18]): -1.32% | activation at 100 µM (348 GPCRs [7]; [19]): -0.204% | % GPCR activation compared to TPA (348 GPCRs [8]): -0.9572% | activation at 100 µM (348 GPCRs [9]; [20]): -0.811% | activation at 10 µM (348 GPCRs [10]; [21]): -0.988% | activation at 10 µM (348 GPCRs [11]; [22]): 1.66% | activation at 100 µM (348 GPCRs [12]; [23]): -0.707%

NC(=O)c1nc(F)cnc1O [favipiravir, 6-fluoro-3-hydroxy-2-pyrazinecarboxamide]
activation at 100 µM (348 GPCRs [1]; [13]): 1.77% | activation at 10 µM (348 GPCRs [2]; [14]): 1.49% | activation at 10 µM (348 GPCRs [3]; [15]): 0.649% | % GPCR activation compared to TPA (348 GPCRs [4]): -1% | activation at 10 µM (348 GPCRs [5]; [16]): -1.44% | activation at 100 µM (348 GPCRs [6]; [17]): -2.09% | activation at 100 µM (348 GPCRs [6]; [18]): -1.34% | activation at 100 µM (348 GPCRs [7]; [19]): -5.47% | % GPCR activation compared to TPA (348 GPCRs [8]): 0.2738% | activation at 100 µM (348 GPCRs [9]; [20]): -1.32% | activation at 100 µM (348 GPCRs [10]; GPCR V2 (arginine vasopressin receptor 2), 100μM, read-out: % GPCR activation compared to TPA): 1.41% | activation at 10 µM (348 GPCRs [11]; [22]): -3.44% | activation at 100 µM (348 GPCRs [12]; [23]): -1.31%
